Target: melittin (Apis mellifera, UniProt P01501)
Assay: biochemical
Type: binding, bee

melittin, sequence (P01501 44-69 limits assumed): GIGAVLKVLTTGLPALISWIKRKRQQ

For `CCCCOc1c2cc(C(=O)Nc3cc4cc(c3)C(=O)NCC(=O)N[C@@H](CC(=O)O)C(=O)NCC(=O)N[C@@H](CC(=O)O)C(=O)NC4)cc1Cc1cc(C(=O)Nc3cc4cc(c3)C(=O)NCC(=O)N[C@@H](CC(=O)O)C(=O)NCC(=O)N[C@@H](CC(=O)O)C(=O)NC4)cc(c1OCCCC)Cc1cc(C(=O)Nc3cc4cc(c3)C(=O)NCC(=O)N[C@@H](CC(=O)O)C(=O)NCC(=O)N[C@@H](CC(=O)O)C(=O)NC4)cc(c1OCCCC)Cc1cc(C(=O)Nc3cc4cc(c3)C(=O)NCC(=O)N[C@@H](CC(=O)O)C(=O)NCC(=O)N[C@@H](CC(=O)O)C(=O)NC4)cc(c1OCCCC)C2` [compound 1, Calix[4]arenetetracyclicpeptide1], the Kd was 1000 nM.
